The values that follow come from patent US20050136079A1, “Cosmetic compositions containing fullerene clusters” (priority 2003, published 2005).

A short description of the test: Antioxidant activity (AOA) by coulometric titration with electrogenerated bromine-based oxidants. The note with it: Coulombs spent for titration of 100 g of analyzed material; sample macerated 1:5 in water or water/alcohol. As to the method: The quantitative assessment of the antioxidant activity of the cosmetic composition containing fullerene clusters was tested utilizing bromine-based oxidants generated electrochemically.
Procedure: • 1. Electrogeneration of bromine-based oxidants and coulonometric tritration were performed with a potentiostate using 1 cm^2 platinum working electrode at a current 5 mA • 2. Bromine oxidant was generated 0.2 M KBr dissolved in 0.1M H2SO4/tartrate buffer solution, which ensure 100% yield of oxidant by current. The final point was determined amperometrically with two polarized platinum electrodes at E=20 mV. • 3. Samples for analysis in water or water/alcohol media were obtained by maceration of the mixture of a cosmetic containing the active ingredient listed in the following table and this media taken in proporation 1:5 by weight. • 4. Antioxidant activity (AOA) is expressed as amount of Coulombs spent for titration of 100 g of the analyzed starting cosmetic substance.
Bromine compounds including Br2, Br3^− and active bromo-radicals are electrochemically generated and adsorbed at the surface of the platinum electrode and then these radicals act as oxidating agents in redox reactions, reactions of electrophilic substitution and addition to double bonds e.g. in the fullerene molecules in the fullerene cluster of cosmetic composition. […]

`CCCCC/C=C\C/C=C\CCCCCCCC(=O)O` [Linoleic Acid without C60, Linoleic Acid] returned an AOA of 4.8 kCb/100 g.
